Source: patent US12281149B2, “Modulators of G-protein coupled receptors” (priority 2021, dated 2025)
*1 amine or outer side, *2 acyl side, *3 side chain or, on linkers, in order; H or OH if unused. Where a SMILES comes first, the peptide text is derived from it. Side-chain parts run from the residue outwards. [ ]: non-standard residue; d: D form. The star is where a group is joined. Isobutyryl(2-(3-CN-5-F-Ph)) = CC(C)(C(=O)*)c1cc(F)cc(C#N)c1; β2hLeu(2S) = CC(C)C[C@@H](CN[*:1])C(=O)[*:2]; C20 diacid = O=C(O)CCCCCCCCCCCCCCCCCCC(=O)*; X49 = O=C([C@H](CN[*:1])c1ccccc1)[*:2]; γGlu = O=C(O)[C@H](CCC(=O)[*:2])N[*:1]; AEEA = NCCOCCOCC(=O)O; Aib = CC(C)(N)C(=O)O

Legend:
Assay type in all cases: cell-based
GLP-1 receptor [1] = target: T1, GLP-1 receptor (Homo sapiens, UniProt P43220); experiment: PathHunter β-arrestin assay, GLP-1 receptor; design: host or cells: PathHunter CHO-K1 GLP1R β-Arrestin Cell Line; details: β-arrestin-2 recruitment, PathHunter CHO-K1 GLP1R β-Arrestin Cell Line, 90 min at 37° C.; normalized to GLP-1; read-out: GLP-1R β Arrestin EC50
T1 sequence (P43220 24-463): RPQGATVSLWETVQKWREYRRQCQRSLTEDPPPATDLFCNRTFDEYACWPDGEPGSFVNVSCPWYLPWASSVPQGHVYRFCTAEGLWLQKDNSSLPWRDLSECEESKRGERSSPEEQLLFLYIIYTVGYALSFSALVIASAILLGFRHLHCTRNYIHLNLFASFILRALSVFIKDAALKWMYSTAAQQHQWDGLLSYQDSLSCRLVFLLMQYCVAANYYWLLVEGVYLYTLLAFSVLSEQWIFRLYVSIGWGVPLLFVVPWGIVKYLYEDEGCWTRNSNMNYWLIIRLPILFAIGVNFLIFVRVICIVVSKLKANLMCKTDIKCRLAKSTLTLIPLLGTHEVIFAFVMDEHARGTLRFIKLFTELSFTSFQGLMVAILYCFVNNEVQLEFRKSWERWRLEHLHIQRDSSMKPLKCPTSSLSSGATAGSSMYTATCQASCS

GLP-1 receptor [2] = target: T1, GLP-1 receptor; experiment: HitHunter cAMP assay, GLP-1 receptor; details: for EC50: CHO cells stably expressing human GLP-1 receptor, cAMP accumulation, 30 min, read-out: EC50 GLP-1R; for Emax: CHO cells, cAMP, normalized to maximum signal from GLP-1 (high) and DMSO (low), read-out: Emax GLP-1R
GIP receptor [3] = target: T2, GIP receptor (Homo sapiens, UniProt P48546); experiment: PathHunter β-arrestin assay, GIP receptor; design: host or cells: PathHunter CHO-K1 GIPR β-Arrestin Cell Line; details: β-arrestin-2 recruitment, PathHunter CHO-K1 GIPR β-Arrestin Cell Line, 90 min at 37° C.; normalized to GIP; read-out: GIPR β Arrestin EC50
T2 sequence (P48546 22-466): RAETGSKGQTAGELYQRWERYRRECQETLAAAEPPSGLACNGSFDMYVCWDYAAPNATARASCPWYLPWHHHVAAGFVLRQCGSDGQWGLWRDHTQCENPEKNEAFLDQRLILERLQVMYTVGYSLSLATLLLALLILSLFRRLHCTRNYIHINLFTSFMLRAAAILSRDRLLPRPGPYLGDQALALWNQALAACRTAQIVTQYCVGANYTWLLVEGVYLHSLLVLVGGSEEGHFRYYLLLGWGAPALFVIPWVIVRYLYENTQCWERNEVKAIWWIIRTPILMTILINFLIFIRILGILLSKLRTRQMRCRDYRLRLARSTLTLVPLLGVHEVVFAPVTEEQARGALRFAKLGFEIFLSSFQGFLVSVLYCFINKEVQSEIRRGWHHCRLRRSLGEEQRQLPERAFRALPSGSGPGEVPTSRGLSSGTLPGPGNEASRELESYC

GIP receptor [4] = target: T2, GIP receptor; experiment: HitHunter cAMP assay, GIP receptor; details: for EC50: CHO cells stably expressing GIP receptor, cAMP accumulation, 30 min, read-out: EC50 GIP-1R; for Emax: CHO cells, cAMP, normalized to maximum signal from GIP (high) and DMSO (low), read-out: Emax GIP-1R

Row | Structure (SMILES) | EC50 (GLP-1 receptor [1]) [nM] | EC50 (GLP-1 receptor [2]) [nM] | Emax (GLP-1 receptor [2]) [%] | EC50 (GIP receptor [3]) [nM] | EC50 (GIP receptor [4]) [nM] | Emax (GIP receptor [4]) [%]
1 | CC[C@H](C)[C@H](NC(=O)[C@H](CC(C)C)NC(=O)[C@H](Cc1c[nH]c2ccccc12)NC(=O)[C@H](CCC(N)=O)NC(=O)[C@@H](NC(=O)[C@H](Cc1ccccc1)NC(=O)[C@H](C)NC(=O)[C@H](CCCCNC(=O)COCCOCCNC(=O)COCCOCCNC(=O)CC[C@H](NC(=O)CCCCCCCCCCCCCCCCCCC(=O)O)C(=O)O)NC(=O)[C@H](CCC(N)=O)NC(=O)[C@H](C)NC(=O)[C@@H](NC(=O)[C@H](CCCCN)NC(=O)[C@H](CC(=O)O)NC(=O)[C@H](CC(C)C)NC(=O)C(C)(C)NC(=O)[C@@H](NC(=O)[C@H](CO)NC(=O)[C@H](Cc1ccc(O)cc1)NC(=O)[C@H](CC(=O)O)NC(=O)[C@H](CO)NC(=O)[C@@H](NC(=O)[C@H](Cc1ccccc1)NC(=O)[C@@H](NC(=O)CNC(=O)[C@H](CCC(=O)O)NC(=O)[C@H](CNC(=O)C(C)(C)c1cc(F)cc(C#N)c1)CC(C)C)[C@@H](C)O)[C@@H](C)O)[C@@H](C)CC)[C@@H](C)CC)C(C)C)C(=O)N[C@@H](C)C(=O)NCC(=O)NCC(=O)N1CCC[C@H]1C(=O)N[C@@H](CO)C(=O)N[C@@H](CO)C(=O)NCC(=O)N[C@@H](C)C(=O)N1CCC[C@H]1C(=O)N1CCC[C@H]1C(=O)N1CCC[C@H]1C(=O)N[C@@H](CO)C(N)=O [Compound 193] ({Isobutyryl(2-(3-CN-5-F-Ph))}-[β2hLeu(2S)]EGTFTSDYSI[Aib]LDKIAQK([AEEA-AEEA-γGlu-C20 diacid])AFVQWLIAGGPSSGAPPPS-NH2) | > 1000 | 10 to 100 | 77 | > 1000 | 100 to 1000 | 70
2 | CC[C@H](C)[C@H](NC(=O)[C@H](CC(C)C)NC(=O)[C@H](Cc1c[nH]c2ccccc12)NC(=O)[C@H](CCC(N)=O)NC(=O)[C@@H](NC(=O)[C@H](Cc1ccccc1)NC(=O)[C@H](C)NC(=O)[C@H](CCCCNC(=O)COCCOCCNC(=O)COCCOCCNC(=O)CC[C@H](NC(=O)CCCCCCCCCCCCCCCCCCC(=O)O)C(=O)O)NC(=O)[C@H](CCC(N)=O)NC(=O)[C@H](C)NC(=O)[C@@H](NC(=O)[C@H](CCCCN)NC(=O)[C@H](CC(=O)O)NC(=O)[C@H](CC(C)C)NC(=O)C(C)(C)NC(=O)[C@@H](NC(=O)[C@H](CO)NC(=O)[C@H](Cc1ccc(O)cc1)NC(=O)[C@H](CC(=O)O)NC(=O)[C@H](CO)NC(=O)[C@@H](NC(=O)[C@H](Cc1ccccc1)NC(=O)[C@@H](NC(=O)CNC(=O)[C@H](CCC(=O)O)NC(=O)[C@H](CNC(=O)C(C)(C)c1cc(F)cc(C#N)c1)c1ccccc1)[C@@H](C)O)[C@@H](C)O)[C@@H](C)CC)[C@@H](C)CC)C(C)C)C(=O)N[C@@H](C)C(=O)NCC(=O)NCC(=O)N1CCC[C@H]1C(=O)N[C@@H](CO)C(=O)N[C@@H](CO)C(=O)NCC(=O)N[C@@H](C)C(=O)N1CCC[C@H]1C(=O)N1CCC[C@H]1C(=O)N1CCC[C@H]1C(=O)N[C@@H](CO)C(N)=O [Compound 170] ({Isobutyryl(2-(3-CN-5-F-Ph))}-[X49]EGTFTSDYSI[Aib]LDKIAQK([AEEA-AEEA-γGlu-C20 diacid])AFVQWLIAGGPSSGAPPPS-NH2) | > 1000 | 100 to 1000 | 57 | > 1000 | 100 to 1000 | 37
